Data as given in ChEMBL document CHEMBL5154688, “Design, Synthesis, and Characterization of I-BET567, a Pan-Bromodomain and Extra Terminal (BET) Bromodomain Oral Candidate” (J Med Chem, 2022).
Activity calls are given as the source filed them. The calls are words filed in the database; no cut-off is given here.

Key:
[1] = Antineoplastic activity against human NMC 11060 cells xenografted in SCID mouse assessed as reduction in tumor volume at 30 mg/kg, po for 20 days measured at 15 days of post randomization relative to control; assay type: functional; conditions: NMC 11060 cell, 480 h, time 20 day
Cytochrome P450 3A4 = Cytochrome P450 3A4 (Homo sapiens, UniProt P08684); assay: Inhibition of CYP3A4 (unknown origin); assay type: ADME
[2] = AUC(0 to 72 hrs) in KLH-TNP-induced T-cell dependent immunization CD-1 mouse model at 30 mg/kg, po administered daily for 14 days; assay type: ADME, organism-based; set-up: dose 30 mg/kg, time 14 day, route po; conditions: in vivo
[3] = molecular target: T1, Bromodomain-containing protein 4 (Homo sapiens, UniProt O60885); assay: Binding affinity to BRD4 BD2 (unknown origin) assessed as dissociation constant
[4] = Unbound AUC(0 to 24 hrs) in SCID mouse xenografted with human NMC 11060 cells at 3 to 30 mg/kg, po for 20 days; assay type: ADME, organism-based; conditions: in vivo, 480 h, dose 3-30 mg/kg, time 20 day
[5] = Antineoplastic activity against human NMC 11060 cells xenografted in SCID mouse assessed as reduction in tumor volume at 30 mg/kg, po for 20 days measured at 17 days of post randomization relative to control; assay type: functional; conditions: NMC 11060 cell, 480 h, time 20 day
CREB-binding protein = CREB-binding protein (Homo sapiens, UniProt Q92793); assay: Binding affinity to CREBBP (unknown origin) assessed as dissociation constant
NUT midline carcinoma = assay: Antineoplastic activity against human NMC 11060 cells xenografted in SCID mouse assessed as reduction in tumor growth at 3 to 30 mg/kg, po for 20 days; assay type: functional, organism-based; conditions: dose 3-30 mg/kg, time 20.0 day
[6] = Intrinsic clearance in rat hepatocytes after 60 mins by LC-MS/MS analysis; assay type: ADME, cell-based, Hepatocyte; conditions: 1 h
[7] = molecular target: T2, Bromodomain-containing protein 3 (Homo sapiens, UniProt Q15059); assay: Binding affinity to BRD3 BD1 (unknown origin) assessed as dissociation constant
[8] = Antineoplastic activity against human NMC 11060 cells xenografted in SCID mouse assessed as reduction in tumor volume at 30 mg/kg, po for 20 days measured at 8 days of post randomization relative to control; assay type: functional; conditions: NMC 11060 cell, 480 h, time 20 day
C-C motif chemokine 2 = C-C motif chemokine 2 (Homo sapiens, UniProt P13500); assay: Inhibition of MCP-1 in LPS-stimulated human whole blood incubate for 24 hrs by immuno assay; assay type: tissue-based
[9] = molecular target: T2, Bromodomain-containing protein 3; assay: Binding affinity to BRD3 BD2 (unknown origin) assessed as dissociation constant
[10] = Intrinsic clearance in dog hepatocytes incubated upto 45 mins by LC-MS/MS analysis; assay type: ADME, cell-based, Canis lupus familiaris, Hepatocyte; conditions: 0.75 h
[11] = Renal clearance in Wistar Han rat assessed as ratio/proportion of renal elimination to total clearance at 3 mg/kg, po or 1.3 mg/kg, iv measured upto 24 hrs by LC-MS/MS analysis; assay type: ADME, organism-based; conditions: in vivo
[12] = Antineoplastic activity against human NMC 11060 cells xenografted in SCID mouse assessed as reduction in tumor volume at 10 mg/kg, po for 20 days measured at 3 days of post randomization relative to control; assay type: functional; conditions: NMC 11060 cell, 480 h, time 20 day
[13] = Antineoplastic activity against human NMC 11060 cells xenografted in SCID mouse assessed as reduction in tumor volume at 10 mg/kg, po for 20 days measured at 8 days of post randomization relative to control; assay type: functional; conditions: NMC 11060 cell, 480 h, time 20 day
[14] = Unbound fraction in Wistar Han rat blood at 3 mg/kg, po or 1.3 mg/kg, iv measured upto 24 hrs by LC-MS/MS analysis; assay type: ADME, organism-based
Mus musculus = assay: Antiinflammatory activity in KLH-TNP-induced T-cell dependent immunization CD-1 mouse model assessed as reduction in circulating IgG1 at 30 mg/kg, po administered daily for 14 days followed by administration of KLH-TNP after 1 hr; assay type: functional; conditions: CD-1, T-cell, 336 h, time 14 day
[15] = Antiproliferative activity against human NMC 11060 cells assessed as inhibition of proliferation; assay type: functional, cell-based; conditions: NUT midline carcinoma
[16] = molecular target: T1, Bromodomain-containing protein 4; assay: Inhibition of BRD4 BD2 (unknown origin) incubated for 30 mins in presence of fluorescent ligand by TR-FRET method
[17] = molecular target: T1, Bromodomain-containing protein 4; assay: Binding affinity to BRD4 BD1 (unknown origin) assessed as dissociation constant
[18] = AUC(0 to 72 hrs) in KLH-TNP-induced T-cell dependent immunization CD-1 mouse model at 30 mg/kg, po administered every other day for 14 days; assay type: ADME, organism-based; set-up: dose 30 mg/kg, time 14 day, route po; conditions: in vivo
[19] = Unbound fraction in Beagle dog blood at 3 mg/kg, po or 1.0 mg/kg, iv by LC-MS/MS analysis; assay type: ADME, organism-based, Canis lupus familiaris
[20] = Volume of distribution at steady state in Wistar Han rat blood at 3 mg/kg, po or 1.3 mg/kg, iv measured upto 24 hrs by LC-MS/MS analysis; assay type: ADME, organism-based; conditions: in vivo
[21] = Toxicity in KLH-TNP-induced T-cell dependent immunization CD-1 mouse model assessed as effect on body weight at 30 mg/kg, po administered daily for 14 days; assay type: organism-based; conditions: in vivo, 336 h, time 14 day
[22] = Intrinsic clearance in human hepatocytes measured after 120 mins by LC-MS/MS analysis; assay type: ADME, cell-based, Hepatocyte; conditions: 2 h
[23] = Unbound volume of distribution at steady state in Beagle dog blood at 3 mg/kg, po or 1.0 mg/kg, iv by LC-MS/MS analysis; assay type: ADME, organism-based, Canis lupus familiaris; conditions: in vivo
[24] = Antineoplastic activity against human NMC 11060 cells xenografted in SCID mouse assessed as reduction in tumor volume at 30 mg/kg, po for 20 days measured at 10 days of post randomization relative to control; assay type: functional; conditions: NMC 11060 cell, 480 h, time 20 day
[25] = Renal clearance in Beagle dog assessed as ratio/proportion of renal elimination to total clearance at 3 mg/kg, po or 1 mg/kg, iv by LC-MS/MS analysis; assay type: ADME, organism-based, Canis lupus familiaris; conditions: in vivo
[26] = Toxicity in SCID mouse xenografted with human NMC 11060 cells assessed as loss of body weight at 30 mg/kg, po for 20 days; assay type: organism-based; conditions: in vivo, 480 h, time 20 day
[27] = Antineoplastic activity against human NMC 11060 cells xenografted in SCID mouse assessed as reduction in tumor volume at 30 mg/kg, po for 20 days measured at 13 days of post randomization relative to control; assay type: functional; conditions: NMC 11060 cell, 480 h, time 20 day
[28] = Antineoplastic activity against human NMC 11060 cells xenografted in SCID mouse assessed as reduction in tumor volume at 10 mg/kg, po for 20 days measured at 13 days of post randomization relative to control; assay type: functional; conditions: NMC 11060 cell, 480 h, time 20 day
[29] = molecular target: Voltage-gated inwardly rectifying potassium channel KCNH2 (Homo sapiens, UniProt Q12809); assay: Inhibition of hERG; assay type: toxicity
[30] = Renal clearance in Beagle dog at 3 mg/kg, po or 1.0 mg/kg, iv by LC-MS/MS analysis; assay type: ADME, organism-based, Canis lupus familiaris; conditions: in vivo
[31] = Antineoplastic activity against human NMC 11060 cells xenografted in SCID mouse assessed as reduction in tumor volume at 10 mg/kg, po for 20 days measured at 20 days of post randomization relative to control; assay type: functional; conditions: NMC 11060 cell, 480 h, time 20 day
[32] = Antineoplastic activity against human NMC 11060 cells xenografted in SCID mouse assessed as reduction in tumor volume at 3 to 30 mg/kg, po for 20 days; assay type: functional, NUT midline carcinoma; set-up: scale not given: the % may be the effect or the level left; conditions: dose 3-30 mg/kg, time 20 day

T2 sequence (Q15059 whole entry): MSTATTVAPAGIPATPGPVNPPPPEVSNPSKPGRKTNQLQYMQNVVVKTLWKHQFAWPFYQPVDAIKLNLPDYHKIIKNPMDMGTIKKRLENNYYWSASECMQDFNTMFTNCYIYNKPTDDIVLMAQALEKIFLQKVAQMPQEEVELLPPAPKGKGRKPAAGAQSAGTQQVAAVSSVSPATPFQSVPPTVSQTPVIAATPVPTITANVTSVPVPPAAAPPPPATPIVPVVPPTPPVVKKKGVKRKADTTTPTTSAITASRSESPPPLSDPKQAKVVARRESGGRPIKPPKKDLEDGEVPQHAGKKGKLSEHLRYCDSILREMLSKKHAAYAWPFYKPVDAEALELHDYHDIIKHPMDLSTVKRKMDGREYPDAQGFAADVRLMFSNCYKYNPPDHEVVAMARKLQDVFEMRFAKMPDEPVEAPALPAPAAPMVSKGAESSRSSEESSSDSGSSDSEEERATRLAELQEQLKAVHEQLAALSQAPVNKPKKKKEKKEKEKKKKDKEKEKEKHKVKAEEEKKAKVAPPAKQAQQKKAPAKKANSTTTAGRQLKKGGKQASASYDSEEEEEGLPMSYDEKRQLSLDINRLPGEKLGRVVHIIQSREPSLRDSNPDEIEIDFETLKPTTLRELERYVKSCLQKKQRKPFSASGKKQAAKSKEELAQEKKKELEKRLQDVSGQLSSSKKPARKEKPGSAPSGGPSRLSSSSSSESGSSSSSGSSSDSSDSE
Chain of Voltage-gated inwardly rectifying potassium channel KCNH2 (Q12809 whole entry): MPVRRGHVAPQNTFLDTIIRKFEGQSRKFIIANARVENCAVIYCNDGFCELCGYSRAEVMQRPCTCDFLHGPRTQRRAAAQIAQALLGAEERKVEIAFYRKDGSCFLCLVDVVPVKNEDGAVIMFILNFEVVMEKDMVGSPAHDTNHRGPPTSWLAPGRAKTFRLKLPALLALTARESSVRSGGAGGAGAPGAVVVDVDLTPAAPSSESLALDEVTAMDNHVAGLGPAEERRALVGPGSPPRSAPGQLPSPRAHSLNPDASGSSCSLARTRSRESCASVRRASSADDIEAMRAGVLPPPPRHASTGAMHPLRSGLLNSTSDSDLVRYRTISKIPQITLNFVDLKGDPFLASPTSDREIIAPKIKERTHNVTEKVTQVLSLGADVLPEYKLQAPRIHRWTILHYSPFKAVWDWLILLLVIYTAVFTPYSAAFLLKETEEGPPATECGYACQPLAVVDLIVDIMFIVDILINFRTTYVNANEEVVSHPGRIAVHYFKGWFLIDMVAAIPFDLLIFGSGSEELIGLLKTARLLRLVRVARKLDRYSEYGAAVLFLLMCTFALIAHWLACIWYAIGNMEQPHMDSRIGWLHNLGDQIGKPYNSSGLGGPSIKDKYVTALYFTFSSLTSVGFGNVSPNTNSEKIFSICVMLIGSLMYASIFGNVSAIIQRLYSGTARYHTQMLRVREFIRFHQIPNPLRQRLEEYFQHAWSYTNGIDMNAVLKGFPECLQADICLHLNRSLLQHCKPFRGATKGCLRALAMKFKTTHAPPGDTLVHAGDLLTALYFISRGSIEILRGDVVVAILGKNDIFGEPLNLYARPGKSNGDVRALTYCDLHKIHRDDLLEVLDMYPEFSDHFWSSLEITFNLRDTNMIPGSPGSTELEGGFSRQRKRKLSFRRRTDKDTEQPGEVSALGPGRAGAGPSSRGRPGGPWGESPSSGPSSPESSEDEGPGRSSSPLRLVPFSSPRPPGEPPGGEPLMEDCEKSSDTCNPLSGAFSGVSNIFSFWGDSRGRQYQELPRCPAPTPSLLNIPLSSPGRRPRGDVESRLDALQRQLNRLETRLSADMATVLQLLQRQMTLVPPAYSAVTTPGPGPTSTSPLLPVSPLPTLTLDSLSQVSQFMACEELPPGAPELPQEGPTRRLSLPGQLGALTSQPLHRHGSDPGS
Chain of Cytochrome P450 3A4 (P08684 whole entry): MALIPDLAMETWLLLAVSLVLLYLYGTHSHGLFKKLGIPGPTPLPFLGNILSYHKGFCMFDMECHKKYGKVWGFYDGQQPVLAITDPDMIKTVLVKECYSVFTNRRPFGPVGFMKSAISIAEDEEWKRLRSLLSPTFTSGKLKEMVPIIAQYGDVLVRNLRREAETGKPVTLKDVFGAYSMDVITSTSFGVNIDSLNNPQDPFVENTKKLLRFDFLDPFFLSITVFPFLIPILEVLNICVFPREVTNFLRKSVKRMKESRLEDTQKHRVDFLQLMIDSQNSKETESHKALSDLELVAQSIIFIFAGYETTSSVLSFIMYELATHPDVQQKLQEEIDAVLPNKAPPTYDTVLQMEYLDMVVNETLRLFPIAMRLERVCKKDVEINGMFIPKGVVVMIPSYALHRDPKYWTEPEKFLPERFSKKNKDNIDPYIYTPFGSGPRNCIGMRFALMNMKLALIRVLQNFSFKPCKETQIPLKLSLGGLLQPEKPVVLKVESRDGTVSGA
Chain of CREB-binding protein (Q92793 whole entry): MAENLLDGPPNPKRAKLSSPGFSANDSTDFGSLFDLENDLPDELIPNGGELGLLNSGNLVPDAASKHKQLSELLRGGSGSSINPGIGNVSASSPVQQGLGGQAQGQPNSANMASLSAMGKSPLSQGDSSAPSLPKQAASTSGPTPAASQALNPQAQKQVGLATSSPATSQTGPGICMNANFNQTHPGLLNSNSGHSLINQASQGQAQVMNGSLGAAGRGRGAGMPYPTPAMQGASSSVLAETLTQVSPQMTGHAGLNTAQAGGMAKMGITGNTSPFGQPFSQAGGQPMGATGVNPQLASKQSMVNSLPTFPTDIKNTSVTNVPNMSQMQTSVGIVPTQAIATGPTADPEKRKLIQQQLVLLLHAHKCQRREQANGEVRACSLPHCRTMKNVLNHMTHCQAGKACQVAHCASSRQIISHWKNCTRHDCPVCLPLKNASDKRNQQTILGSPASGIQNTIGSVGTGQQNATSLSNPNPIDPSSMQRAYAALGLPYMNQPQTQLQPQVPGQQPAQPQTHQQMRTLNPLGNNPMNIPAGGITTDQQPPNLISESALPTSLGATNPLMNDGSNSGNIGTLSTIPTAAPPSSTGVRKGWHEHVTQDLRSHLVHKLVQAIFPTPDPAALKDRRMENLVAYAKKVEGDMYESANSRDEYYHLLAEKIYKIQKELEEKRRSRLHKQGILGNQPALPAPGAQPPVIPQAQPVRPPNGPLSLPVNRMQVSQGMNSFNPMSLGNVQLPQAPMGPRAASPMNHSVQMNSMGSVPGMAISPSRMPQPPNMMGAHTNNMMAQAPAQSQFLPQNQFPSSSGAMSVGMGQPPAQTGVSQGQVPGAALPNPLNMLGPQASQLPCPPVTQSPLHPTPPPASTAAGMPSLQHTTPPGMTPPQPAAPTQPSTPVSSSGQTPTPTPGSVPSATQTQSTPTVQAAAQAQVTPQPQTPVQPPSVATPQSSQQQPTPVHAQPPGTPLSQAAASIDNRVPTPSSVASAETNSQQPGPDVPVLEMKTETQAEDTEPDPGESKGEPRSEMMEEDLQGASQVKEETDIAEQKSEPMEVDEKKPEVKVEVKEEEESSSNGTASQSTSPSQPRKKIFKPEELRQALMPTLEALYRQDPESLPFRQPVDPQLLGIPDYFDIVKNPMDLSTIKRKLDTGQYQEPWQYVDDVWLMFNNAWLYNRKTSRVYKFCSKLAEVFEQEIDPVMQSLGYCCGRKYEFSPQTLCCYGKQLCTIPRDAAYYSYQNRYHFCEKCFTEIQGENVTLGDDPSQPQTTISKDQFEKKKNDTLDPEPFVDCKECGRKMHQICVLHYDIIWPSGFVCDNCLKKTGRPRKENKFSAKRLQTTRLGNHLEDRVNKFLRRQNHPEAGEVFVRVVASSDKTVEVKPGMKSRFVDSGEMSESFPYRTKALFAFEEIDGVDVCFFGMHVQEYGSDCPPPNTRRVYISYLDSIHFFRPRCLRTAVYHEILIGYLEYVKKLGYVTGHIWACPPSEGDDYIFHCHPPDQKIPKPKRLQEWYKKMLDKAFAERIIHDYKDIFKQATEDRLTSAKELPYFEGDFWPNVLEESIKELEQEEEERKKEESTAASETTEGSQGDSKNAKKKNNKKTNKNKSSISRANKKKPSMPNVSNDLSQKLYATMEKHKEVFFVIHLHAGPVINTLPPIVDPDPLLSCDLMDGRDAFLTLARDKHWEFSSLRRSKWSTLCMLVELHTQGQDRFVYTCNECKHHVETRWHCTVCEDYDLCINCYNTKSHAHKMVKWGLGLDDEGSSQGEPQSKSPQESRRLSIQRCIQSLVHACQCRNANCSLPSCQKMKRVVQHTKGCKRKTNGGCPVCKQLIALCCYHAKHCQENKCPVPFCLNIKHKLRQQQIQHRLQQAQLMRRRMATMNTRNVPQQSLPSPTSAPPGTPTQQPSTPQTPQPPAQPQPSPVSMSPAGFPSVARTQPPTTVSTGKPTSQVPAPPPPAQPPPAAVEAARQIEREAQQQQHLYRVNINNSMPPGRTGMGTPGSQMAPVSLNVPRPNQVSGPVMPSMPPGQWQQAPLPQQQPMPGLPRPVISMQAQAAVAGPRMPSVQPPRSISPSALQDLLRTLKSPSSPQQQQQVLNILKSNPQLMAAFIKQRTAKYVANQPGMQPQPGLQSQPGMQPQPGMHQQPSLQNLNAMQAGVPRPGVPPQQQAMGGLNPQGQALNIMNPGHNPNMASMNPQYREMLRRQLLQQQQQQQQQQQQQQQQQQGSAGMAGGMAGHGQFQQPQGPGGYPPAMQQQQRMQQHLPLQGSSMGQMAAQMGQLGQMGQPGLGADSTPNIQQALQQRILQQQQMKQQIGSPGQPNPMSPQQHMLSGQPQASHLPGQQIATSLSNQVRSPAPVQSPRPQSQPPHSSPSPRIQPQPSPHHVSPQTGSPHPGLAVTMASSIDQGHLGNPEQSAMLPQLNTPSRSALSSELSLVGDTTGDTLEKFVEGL
Chain of C-C motif chemokine 2 (P13500 whole entry): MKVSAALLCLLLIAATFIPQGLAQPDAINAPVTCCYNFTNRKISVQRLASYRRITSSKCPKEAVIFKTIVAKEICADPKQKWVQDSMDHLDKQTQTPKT

Compound `CC(=O)N1c2ccc(C(N)=O)cc2[C@H](Nc2ncc(Cl)cn2)C[C@@H]1C` has an inhibition in vivo at 30 mg/kg [1] of 92%, an IC50 (Cytochrome P450 3A4) greater than 39800 nM and an AUC at 336 h [2] of 103 µM·h. For the same compound, the Kd [3] was 5.01 nM, the fAUC [4] was 10 µM·h and the inhibition in vivo at 30 mg/kg [5] was 93%. For the same compound, the Kd (CREB-binding protein) was 2510 nM, the Activity (NUT midline carcinoma) was “Active” and the CLH [6] was less than 0.8 mL/min/g. For the same compound, the Kd [7] was 25.1 nM, the inhibition in vivo at 30 mg/kg [8] was 85% and the IC50 (C-C motif chemokine 2) was 200 nM. It also gave a Kd [9] of 6.31 nM, a CLH [10] of less than 1.26 mL/min/g and a Ratio [11] of 28%. For the same compound, the inhibition in vivo at 10 mg/kg [12] was 45%, the inhibition in vivo at 10 mg/kg [13] was 62% and the fraction unbound at 24 h [14] was 0.23. It also gave an inhibition in vivo at 30 mg/kg (Mus musculus) of 98%, an IC50 [15] of 630 nM and an IC50 [16] of 63.1 nM. It also gave a Kd [17] of 25.1 nM, an AUC at 336 h [18] of 69 µM·h and a fraction unbound [19] of 0.41. For the same compound, the Vdss [20] was 2.4 L/kg, the Activity [21] was “Non-Toxic” and the CLH [22] was less than 0.87 mL/min/g. It also gave a Vduss [23] of 2.9 L/kg, an inhibition in vivo at 30 mg/kg [24] of 83% and a Ratio [25] of 85%. It also gave an Activity [26] of 19.6%, an inhibition in vivo at 30 mg/kg [27] of 88% and an inhibition in vivo at 10 mg/kg [28] of 56%. For the same compound, the IC50 [29] was greater than 50100 nM, the CL renal [30] was 6.9 mL/min/kg and the inhibition in vivo at 10 mg/kg [31] was 51%. For the same compound, the Activity [32] was greater than 50%.
